{"source": "patent US20210177880A1", "about": "“METHODS AND COMPOSITIONS FOR TREATING ACUTE MYELOID LEUKEMIA” (President and Fellows of Harvard College, priority 2017, published 2021)", "key": {"[1]": {"test_system": "THP1 human AML cell line", "assay": "Viability of human AML cells (THP1) treated in culture with iCT in combination with DON", "format": "cell-based", "details": "different doses of iCT (cytarabine+doxorubicin) in combination with DON, 72 h in vitro, FIG. 5A", "description": "Arrows show the range where synergism occurs. […] FIG. 5C provides the chemical structure of glutamine and 6-diazo-5-oxo-L-norleucine (DON). FIGS. 5D-5E show survival of AML-bearing mice treated with iCT (days 7-11) with or without short term 6-diazo-5-oxo-L-norleucine (DON; 0.3 mg/kg), showing the treatment schedule (FIG. 5D) and Kaplan-Meier survival curves (FIG. 5E). iCT+DON: both given at same time; iCT+DON^+3: DON started 3 days after first dose of iCT. FIGS. 5F-5G show survival of AML-bearing mice treated with iCT (days 7-11) with or without continuous DON ([…]), showing the treatment schedule (FIG. 5F) and Kaplan-Meier survival curves (FIG. 5G). iCT+DON^post: DON started after last dose of iCT.\n(§1) To confirm that glutamine metabolism plays a functional role in protecting AML cells from chemotherapy, human AML cells (THP1) were treated in culture with iCT in combination with 6-diazo-5-oxo-L-norleucine (DON), a glutamine analog and antagonist that inhibits all glutamine-dependent enzymes (FIG. 5C). […] Mice carrying AML were then treated in combination with DON at different regimens (FIG. 5D)."}, "[2]": {"test_system": "MLL-AF9 AML cells", "assay": "Survival of AML-bearing mice treated with iCT with or without DON", "format": "in vivo, mouse", "description": "Arrows show the range where synergism occurs. […] FIG. 5C provides the chemical structure of glutamine and 6-diazo-5-oxo-L-norleucine (DON). FIGS. 5D-5E show survival of AML-bearing mice treated with iCT (days 7-11) with or without short term 6-diazo-5-oxo-L-norleucine (DON; 0.3 mg/kg), showing the treatment schedule (FIG. 5D) and Kaplan-Meier survival curves (FIG. 5E). iCT+DON: both given at same time; iCT+DON^+3: DON started 3 days after first dose of iCT. […]\nTo test this hypothesis, a mouse model was used in which cells express MLLAF9, driving leukemia development, luciferase, and GFP. The mouse model allows real-time monitoring of leukemic burden through bioluminescence imaging, and therefore identification of the moment of maximal response to iCT. Bone marrow cells derived from terminally ill primary mice were intravenously transplanted into secondary wildtype recipients, leading to the development of a very aggressive disease that can be monitored in real time since only AML cells express luciferase and GFP. Mice were treated with a chemotherapy regimen that closely mimics the one used in patients (cytarabine for 5 days and doxorubicin for the first 3 days) or vehicle, and followed disease progression using bioluminescence imaging (FIG. 6A). It was discovered that the amount of maximal response occurs 3-4 days after the last dose of chemotherapy (FIG. 6B). This means that at this moment, after the selection pressure of chemotherapy, massive neighboring cell death, and possibly other stress factors such as niche alteration, certain cells have adapted and are now started to grow again.\nas §1"}, "[3]": {"assay": "Tolerability of daily DON injections in mice carrying AML", "format": "in vivo, mouse", "details": "daily injections extended for more than 5 days", "description": "as §1"}}}
{"smiles": "[N-]=[N+]=CC(=O)CC[C@H](N)C(=O)O", "note": "[DON, 6-diazo-5-oxo-L-norleucine]", "values": [{"measurement": "interaction of iCT and DON on viability of THP1 cells", "setting": "[1]", "result": "synergy at several doses"}, {"measurement": "survival of AML-bearing mice, DON given together with iCT, versus iCT alone", "setting": "[2]; DON 0.3 mg/kg daily for 5 days at the same time as iCT (cytarabine 100 mg/kg 5 days + doxorubicin 3 mg/kg first 3 days), FIG. 5B/5E", "result": "did not extend survival"}, {"measurement": "survival of AML-bearing mice, DON short treatment", "setting": "[2]; DON daily for 5 days at 0.3 mg/kg, FIG. 5B/5E", "result": "did not have much effect"}, {"measurement": "interaction between iCT and DON treatment on survival", "setting": "[2]; DON every other day at 0.3 mg/kg, extended treatment after iCT, FIG. 5G", "result": "clear synergism"}, {"measurement": "survival of AML-bearing mice, DON every other day after iCT, versus iCT alone", "setting": "[2]; DON every other day at 0.3 mg/kg, started after last dose of iCT (iCT+DONpost), p=0.0019, FIG. 5F/5G", "result": "increased substantially"}, {"measurement": "survival of AML-bearing mice, DON delayed 3 days after first dose of iCT", "setting": "[2]; iCT+DON+3: short-term DON 0.3 mg/kg started 3 days after first dose of iCT, spanning the moment of maximal response, FIG. 5E", "result": "a clear survival benefit was achieved"}, {"measurement": "lethality of daily DON injections", "setting": "[3]", "result": "proved lethal"}]}
